{"source": "patent US11071769B2", "about": "“Lipo-glycopeptide cleavable derivatives and uses thereof” (Insmed Incorporated, priority 2017, dated 2021)", "key": {"[1]": {"system": "MRSA isolate ATCC BAA-1556", "assay": "MIC, CLSI-guided broth susceptibility testing, MRSA 1556", "type": "cell-based, Staphylococcus aureus", "conditions": "for MIC: Staphylococcus aureus, read-out: MIC Values, MRSA 1556; for MIC Values, MRSA 1556: MRSA isolate ATCC BAA-1556", "procedure": "(§1) Compounds of the invention were evaluated for their ability to inhibit bacterial growth in two MRS A strains—MRS A 1556 and MRS A 29213. Table 2 provides MIC concentrations for metabolites of the ester and amide compounds, RV80 (metabolite of RV65 ester) and RV82 (metabolite of RV62 amide). MIC values for vancomycin and telavancin are also provided.\n(§2) MIC Testing: Glycopeptide compounds were dissolved in 100% DMSO. In vitro activities were determined using CLSI-guided broth susceptibility testing to measure drug minimum inhibitory concentrations (MICs) of the compounds against the quality control strain ATCC 29213 (MSSA) and the MRS A isolate ATCC BAA-1556."}, "[2]": {"system": "quality control strain ATCC 29213 (MSSA)", "assay": "MIC, CLSI-guided broth susceptibility testing, MSSA 29213", "type": "cell-based, Staphylococcus aureus", "conditions": "for MIC: Staphylococcus aureus, read-out: MIC Values, MSSA 29213; for MIC Values, MSSA 29213: ATCC 29213 (MSSA)", "procedure": "as §1, §2"}, "[3]": {"assay": "Metabolism (hydrolysis) in rat plasma", "type": "in vitro ADME", "conditions": "37° C.; for degradant detected in plasma: 50 μg/mL", "procedure": "RV62 and RV65 were dissolved in 100% DMSO. Stock solutions were diluted using rat plasma to contain less than 1% organic solvent with a final drug concentration of 50 μg/mL. Samples were briefly vortexed and then incubated in a shaker set to 37° C. and 300 rpm. Aliquots were removed at specified time points and store at −80° C. until extraction and analysis. Samples were extracted using a solution of 10% TCA and analyzed using LCMS."}, "[4]": {"assay": "Degradation (hydrolysis) in Tris buffer by HPLC", "type": "physicochemical", "conditions": "1 mM Tris buffer pH 6.99, 40° C., 72 h", "procedure": "RV62 and RV65 degradation was determined according to the following procedures.\nCompounds were dissolved and diluted with 1 mM Tris buffer (pH 6.99) to achieve a concentration of 54 μg/mL (stock solution). 0.5 mL of stock solution was further diluted with acetonitrile to a total volume of 10 mL. The stock solution was incubated at 40° C., with samples withdrawn at 3, 6, 24, and 72 h and tested by HPLC.\nHPLC method: Samples were injected onto a 100×2.1 mm Waters Cortecs HILIC with a particle size of 1.6 μm. The mobile phase consisted of water (0.1% formic acid) and acetonitrile (0.1% formic acid). The analytic method utilized a gradient from 10% water (0.1% formic acid)/90% acetonitrile (0.1% formic acid) to 70% water (0.1% formic acid)/30% acetonitrile (0.1% formic acid). The HPLC instrument was equipped with a UV detector (280 nm). Compounds were identified by mass."}}}
{"smiles": "CCCCCCCCCCNCCN[C@@]1(C)C[C@H](O[C@H]2[C@H](Oc3c4cc5cc3Oc3ccc(cc3Cl)[C@@H](O)[C@@H](NC(=O)[C@@H](CC(C)C)NC)C(=O)N[C@@H](CC(N)=O)C(=O)N[C@H]5C(=O)N[C@H]3C(=O)N[C@H](C(=O)N[C@H](C(=O)O)c5cc(O)c(CNCP(=O)(O)O)c(O)c5-c5cc3ccc5O)[C@H](O)c3ccc(c(Cl)c3)O4)O[C@H](CO)[C@@H](O)[C@@H]2O)O[C@@H](C)[C@H]1O", "note": "[Telavancin, telavancin, reference compound]", "values": [{"measurement": "MIC", "setting": "[1]", "value": 0.063, "unit": "µg/mL"}, {"measurement": "MIC", "setting": "[2]", "value": 0.063, "unit": "µg/mL"}]}
{"smiles": "CCCCCCCCCCCC(=O)OCCNC1(C)CC(OC2C(Oc3c4cc5cc3Oc3ccc(cc3Cl)C(O)C3NC(=O)C(NC(=O)C5NC(=O)C(CC(N)=O)NC(=O)C(NC(=O)C(CC(C)C)NC)C(O)c5ccc(c(Cl)c5)O4)c4ccc(O)c(c4)-c4c(O)cc(O)cc4C(C(=O)O)NC3=O)OC(CO)C(O)C2O)OC(C)C1O", "note": "(centres unmarked) [RV65]", "values": [{"measurement": "MIC Values, MRSA 1556", "setting": "[1]", "value": 0.094, "unit": "µg/mL"}, {"measurement": "degradant detected in plasma", "setting": "[3]; 6 h incubation", "value": "~90", "unit": "%"}, {"measurement": "metabolism in plasma compared to RV62", "setting": "[3]; over 24 h", "value": "metabolized faster"}, {"measurement": "peak area for the cleaved glycopeptide, of the total", "setting": "[4]", "value": "about 42%"}, {"measurement": "MIC Values, MSSA 29213", "setting": "[2]", "value": 0.063, "unit": "µg/mL"}]}
{"smiles": "CCCCCCCCCC(=O)NCCNC1(C)CC(OC2C(Oc3c4cc5cc3Oc3ccc(cc3Cl)C(O)C3NC(=O)C(NC(=O)C5NC(=O)C(CC(N)=O)NC(=O)C(NC(=O)C(CC(C)C)NC)C(O)c5ccc(c(Cl)c5)O4)c4ccc(O)c(c4)-c4c(O)cc(O)cc4C(C(=O)O)NC3=O)OC(CO)C(O)C2O)OC(C)C1O", "note": "(centres unmarked) [RV56]", "values": [{"measurement": "MIC Values, MRSA 1556", "setting": "[1]", "value": 0.063, "unit": "µg/mL"}, {"measurement": "MIC Values, MSSA 29213", "setting": "[2]", "value": 0.063, "unit": "µg/mL"}]}
{"smiles": "CCCCCCCCCC(=O)OCCNC1(C)CC(OC2C(Oc3c4cc5cc3Oc3ccc(cc3Cl)C(O)C3NC(=O)C(NC(=O)C5NC(=O)C(CC(N)=O)NC(=O)C(NC(=O)C(CC(C)C)NC)C(O)c5ccc(c(Cl)c5)O4)c4ccc(O)c(c4)-c4c(O)cc(O)cc4C(C(=O)O)NC3=O)OC(CO)C(O)C2O)OC(C)C1O", "note": "(centres unmarked) [RV54]", "values": [{"measurement": "MIC Values, MRSA 1556", "setting": "[1]", "value": 0.167, "unit": "µg/mL"}, {"measurement": "MIC Values, MSSA 29213", "setting": "[2]", "value": 0.146, "unit": "µg/mL"}]}
{"smiles": "CN[C@H](CC(C)C)C(=O)N[C@H]1C(=O)N[C@@H](CC(N)=O)C(=O)N[C@H]2C(=O)N[C@H]3C(=O)N[C@H](C(=O)N[C@@H](C(=O)O)c4cc(O)cc(O)c4-c4cc3ccc4O)[C@H](O)c3ccc(c(Cl)c3)Oc3cc2cc(c3O[C@@H]2O[C@H](CO)[C@@H](O)[C@H](O)[C@H]2O[C@H]2C[C@](C)(NCCN)[C@H](O)[C@H](C)O2)Oc2ccc(cc2Cl)[C@H]1O", "note": "[RV82]", "values": [{"measurement": "MIC", "setting": "[1]", "value": 3, "unit": "µg/mL"}, {"measurement": "MIC", "setting": "[2]", "value": 3, "unit": "µg/mL"}]}
{"smiles": "CCCCCCCCCCCCNC(=O)CNC1(C)CC(OC2C(Oc3c4cc5cc3Oc3ccc(cc3Cl)C(O)C3NC(=O)C(NC(=O)C5NC(=O)C(CC(N)=O)NC(=O)C(NC(=O)C(CC(C)C)NC)C(O)c5ccc(c(Cl)c5)O4)c4ccc(O)c(c4)-c4c(O)cc(O)cc4C(C(=O)O)NC3=O)OC(CO)C(O)C2O)OC(C)C1O", "note": "(centres unmarked) [RV95]", "values": [{"measurement": "MIC Values, MRSA 1556", "setting": "[1]", "value": 0.031, "unit": "µg/mL"}, {"measurement": "MIC Values, MSSA 29213", "setting": "[2]", "value": 0.031, "unit": "µg/mL"}]}
{"smiles": "CCCCCCCCCCCCCCCC(=O)OCCNC1(C)CC(OC2C(Oc3c4cc5cc3Oc3ccc(cc3Cl)C(O)C3NC(=O)C(NC(=O)C5NC(=O)C(CC(N)=O)NC(=O)C(NC(=O)C(CC(C)C)NC)C(O)c5ccc(c(Cl)c5)O4)c4ccc(O)c(c4)-c4c(O)cc(O)cc4C(C(=O)O)NC3=O)OC(CO)C(O)C2O)OC(C)C1O", "note": "(centres unmarked) [RV89]", "values": [{"measurement": "MIC Values, MRSA 1556", "setting": "[1]", "value": 1.000, "unit": "µg/mL"}, {"measurement": "MIC Values, MSSA 29213", "setting": "[2]", "value": 0.500, "unit": "µg/mL"}]}
{"smiles": "CNC(CC(C)C)C(=O)NC1C(=O)NC(CC(N)=O)C(=O)NC2C(=O)NC3C(=O)NC(C(=O)NC(C(=O)O)c4cc(O)cc(O)c4-c4cc3ccc4O)C(O)c3ccc(c(Cl)c3)Oc3cc2cc(c3OC2OC(CO)C(O)C(O)C2OC2CC(C)(NCCO)C(O)C(C)O2)Oc2ccc(cc2Cl)C1O", "note": "(centres unmarked) [RV80]", "values": [{"measurement": "MIC Values, MRSA 1556", "setting": "[1]", "value": 1, "unit": "µg/mL"}, {"measurement": "MIC Values, MSSA 29213", "setting": "[2]", "value": 1, "unit": "µg/mL"}]}
{"smiles": "CCCCCCCCCCCCCCCC(=O)NCCNC1(C)CC(OC2C(Oc3c4cc5cc3Oc3ccc(cc3Cl)C(O)C3NC(=O)C(NC(=O)C5NC(=O)C(CC(N)=O)NC(=O)C(NC(=O)C(CC(C)C)NC)C(O)c5ccc(c(Cl)c5)O4)c4ccc(O)c(c4)-c4c(O)cc(O)cc4C(C(=O)O)NC3=O)OC(CO)C(O)C2O)OC(C)C1O", "note": "(centres unmarked) [RV91]", "values": [{"measurement": "MIC Values, MRSA 1556", "setting": "[1]", "value": 0.250, "unit": "µg/mL"}, {"measurement": "MIC Values, MSSA 29213", "setting": "[2]", "value": 0.188, "unit": "µg/mL"}]}
{"smiles": "CCCCCCCC(=O)OCCNC1(C)CC(OC2C(Oc3c4cc5cc3Oc3ccc(cc3Cl)C(O)C3NC(=O)C(NC(=O)C5NC(=O)C(CC(N)=O)NC(=O)C(NC(=O)C(CC(C)C)NC)C(O)c5ccc(c(Cl)c5)O4)c4ccc(O)c(c4)-c4c(O)cc(O)cc4C(C(=O)O)NC3=O)OC(CO)C(O)C2O)OC(C)C1O", "note": "(centres unmarked) [RV90]", "values": [{"measurement": "MIC Values, MRSA 1556", "setting": "[1]", "value": 0.250, "unit": "µg/mL"}, {"measurement": "MIC Values, MSSA 29213", "setting": "[2]", "value": 0.250, "unit": "µg/mL"}]}
{"smiles": "CCCCCCCCCCCC(=O)NCCNC1(C)CC(OC2C(Oc3c4cc5cc3Oc3ccc(cc3Cl)C(O)C3NC(=O)C(NC(=O)C5NC(=O)C(CC(N)=O)NC(=O)C(NC(=O)C(CC(C)C)NC)C(O)c5ccc(c(Cl)c5)O4)c4ccc(O)c(c4)-c4c(O)cc(O)cc4C(C(=O)O)NC3=O)OC(CO)C(O)C2O)OC(C)C1O", "note": "(centres unmarked) [RV62]", "values": [{"measurement": "MIC Values, MRSA 1556", "setting": "[1]", "value": 0.023, "unit": "µg/mL"}, {"measurement": "fold more efficacious than RV65 (MIC)", "setting": "[1]; compared with RV65, the ester with the lowest measured MIC, Table 1, both strains", "value": "about 3 ×"}, {"measurement": "degradant detected in plasma", "setting": "[3]; 24 h incubation", "value": 6, "unit": "%"}, {"measurement": "MIC Values, MSSA 29213", "setting": "[2]", "value": 0.023, "unit": "µg/mL"}]}
{"smiles": "CCCCCCCC(=O)NCCNC1(C)CC(OC2C(Oc3c4cc5cc3Oc3ccc(cc3Cl)C(O)C3NC(=O)C(NC(=O)C5NC(=O)C(CC(N)=O)NC(=O)C(NC(=O)C(CC(C)C)NC)C(O)c5ccc(c(Cl)c5)O4)c4ccc(O)c(c4)-c4c(O)cc(O)cc4C(C(=O)O)NC3=O)OC(CO)C(O)C2O)OC(C)C1O", "note": "(centres unmarked) [RV93]", "values": [{"measurement": "MIC Values, MRSA 1556", "setting": "[1]", "value": 0.125, "unit": "µg/mL"}, {"measurement": "MIC Values, MSSA 29213", "setting": "[2]", "value": 0.125, "unit": "µg/mL"}]}
